In publication PMC3914206:

What was measured:
Assay type in all cases: binding
panel of 442 kinases [1] = molecular target: T1, panel of 442 kinases (Homo sapiens, UniProt Q86UE8); settings: kinase TLK2; compound concentration 10 µM
T1 construct: purchased KINOMEscan
From the text: (§1) We assessed the selectivity of members of this scaffold using the KINOMEscan methodology across a near comprehensive panel of 442 kinases [[18,27]].

panel of 442 kinases [2] = molecular target: T2, panel of 442 kinases (Homo sapiens, UniProt Q96Q40); settings: Compound Concentration 10 µM
T2 construct: purchased KINOMEscan
From the text: as §1

panel of 442 kinases [3] = molecular target: T3, panel of 442 kinases (Homo sapiens, UniProt Q13131); settings: Compound Concentration 10 µM
T3 construct: purchased KINOMEscan
From the text: as §1

T2 sequence (Q96Q40 whole entry): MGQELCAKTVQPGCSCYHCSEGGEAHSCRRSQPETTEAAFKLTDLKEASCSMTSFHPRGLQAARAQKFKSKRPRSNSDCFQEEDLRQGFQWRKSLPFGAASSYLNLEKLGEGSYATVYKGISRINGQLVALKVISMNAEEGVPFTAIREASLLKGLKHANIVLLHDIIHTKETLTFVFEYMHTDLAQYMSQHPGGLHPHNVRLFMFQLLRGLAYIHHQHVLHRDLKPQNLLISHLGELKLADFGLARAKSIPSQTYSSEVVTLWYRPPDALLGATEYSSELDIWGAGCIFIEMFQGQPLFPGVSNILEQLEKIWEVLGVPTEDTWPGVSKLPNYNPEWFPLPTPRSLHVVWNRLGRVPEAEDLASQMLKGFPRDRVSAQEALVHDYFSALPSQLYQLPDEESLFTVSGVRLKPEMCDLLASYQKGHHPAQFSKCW
T1 sequence (Q86UE8 whole entry): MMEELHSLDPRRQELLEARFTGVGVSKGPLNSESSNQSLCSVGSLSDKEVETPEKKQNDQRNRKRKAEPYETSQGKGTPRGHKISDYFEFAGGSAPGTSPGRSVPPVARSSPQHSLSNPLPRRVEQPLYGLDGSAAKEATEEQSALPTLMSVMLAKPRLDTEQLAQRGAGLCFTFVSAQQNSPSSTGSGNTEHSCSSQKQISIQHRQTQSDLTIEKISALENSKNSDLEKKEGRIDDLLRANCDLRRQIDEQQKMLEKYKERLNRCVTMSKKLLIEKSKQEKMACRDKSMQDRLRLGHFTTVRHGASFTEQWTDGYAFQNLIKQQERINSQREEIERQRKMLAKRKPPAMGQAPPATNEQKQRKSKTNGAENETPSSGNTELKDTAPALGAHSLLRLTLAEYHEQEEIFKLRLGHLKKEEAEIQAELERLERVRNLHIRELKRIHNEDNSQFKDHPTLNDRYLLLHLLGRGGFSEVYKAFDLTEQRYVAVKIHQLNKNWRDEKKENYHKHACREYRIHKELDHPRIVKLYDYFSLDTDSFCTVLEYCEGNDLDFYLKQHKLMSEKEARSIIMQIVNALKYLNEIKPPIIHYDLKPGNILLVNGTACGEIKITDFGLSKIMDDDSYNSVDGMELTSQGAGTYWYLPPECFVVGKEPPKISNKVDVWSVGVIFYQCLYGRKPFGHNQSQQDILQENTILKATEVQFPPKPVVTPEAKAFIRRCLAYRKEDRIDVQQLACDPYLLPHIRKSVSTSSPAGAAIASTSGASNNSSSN
T3 sequence (Q13131 whole entry): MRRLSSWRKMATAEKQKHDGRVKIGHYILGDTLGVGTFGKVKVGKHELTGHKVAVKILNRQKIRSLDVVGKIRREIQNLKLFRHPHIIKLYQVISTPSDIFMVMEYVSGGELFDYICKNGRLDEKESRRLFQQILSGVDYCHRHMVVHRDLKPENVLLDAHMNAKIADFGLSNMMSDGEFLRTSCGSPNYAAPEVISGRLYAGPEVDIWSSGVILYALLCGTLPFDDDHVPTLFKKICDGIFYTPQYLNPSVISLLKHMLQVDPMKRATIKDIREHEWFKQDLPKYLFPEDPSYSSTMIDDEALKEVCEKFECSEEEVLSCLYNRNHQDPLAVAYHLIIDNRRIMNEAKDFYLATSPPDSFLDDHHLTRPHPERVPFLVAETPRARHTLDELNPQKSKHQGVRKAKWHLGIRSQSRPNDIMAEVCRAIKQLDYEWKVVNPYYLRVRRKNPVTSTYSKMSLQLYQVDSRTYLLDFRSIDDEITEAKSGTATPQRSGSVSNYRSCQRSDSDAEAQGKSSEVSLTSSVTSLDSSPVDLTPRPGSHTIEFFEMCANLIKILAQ

| Compound | % Ctrl, TLK2 (panel of 442 kinases [1]) | KINOMEscan: PFTAIRE2 (panel of 442 kinases [2]) | KINOMEscan: AMPK-alpha1 (panel of 442 kinases [3]) |
| --- | --- | --- | --- |
| COc1cc(C(=O)N2CCC(N3CCN(C)CC3)CC2)ccc1Nc1ncc2c(n1)N(C)c1ccccc1C(=O)N2C [15 (LRRK2-IN-1)] | 99 % Ctrl | 100 | 51 |
| COc1cc(C(=O)N2CCC(N3CCN(C)CC3)CC2)ccc1Nc1ncc2c(n1)N1CCc3cccc(c31)C(=O)N2C [Compound 24] | 98 % Ctrl | – | – |
| COc1cc(C(=O)N2CCC(N3CCN(C)CC3)CC2)ccc1Nc1ncc2c(n1)N(C1CCCC1)c1ccccc1C(=O)N2C [Compound 25, 11-cyclopentyl-2-((2-methoxy-4-(4-(4-methylpiperazin-1-yl)piperidine-1-carbonyl)phenyl)amino)-5-methyl-5H-benzo[e]pyrimido[5,4-b][1,4]diazepin-6(11H)-one] | 94 % Ctrl | 99 | 48 |
| CCOc1cc(C(=O)N2CCC(N3CCN(C)CC3)CC2)ccc1Nc1ncc2c(n1)N(C1CCCC1)c1ccccc1C(=O)N2C [Compound 26] | 100 % Ctrl | 100 | 100 |
